Values joined by “and” are separate entries in the source; they are usually repeats but may differ in a detail not shown here. Equal entries are not always repeated. Blank lines part the entries; values can stand above or below the molecule they belong to.
Test system: 361931-004-R-J1-PDC multicell spheroid viability
Assay: Anticancer human tumor 361931-004-R-J1-PDC patient-derived colon adenocarcinoma cell line growth inhibition [PI3K]
Details: for viability, T/C: stronger effect = lower value
Summary of the method: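 Complex 3D spheroids (cancer cells + endothelial HUVEC + mesenchymal stem cells); drug pairs of targeted agent x inavolisib/alpelisib/duvelisib/copanlisib; half-log series from ~Cmax, max 10 microM if Cmax unknown; endpoint viability.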

[1] = curve of first compound, second compound 0.00316 µM
[2] = curve of first compound, second compound 0.01 µM
[3] = curve of first compound, second compound 0.0316 µM
[4] = curve of first compound, second compound 0.1 µM
[5] = curve of first compound, second compound 0.316 µM
[6] = curve of first compound, second compound 1 µM
[7] = second compound 0.0316 µM, first compound 0.0316 µM
[8] = second compound 0.0316 µM, first compound 0.1 µM
[9] = second compound 0.0316 µM, first compound 0.316 µM
[10] = second compound 0.0316 µM, first compound 1 µM
[11] = second compound 0.1 µM, first compound 0.0316 µM
[12] = second compound 0.1 µM, first compound 0.1 µM
[13] = second compound 0.1 µM, first compound 0.316 µM
[14] = second compound 0.1 µM, first compound 1 µM
[15] = second compound 0.316 µM, first compound 0.0316 µM
[16] = second compound 0.316 µM, first compound 0.1 µM
[17] = second compound 0.316 µM, first compound 0.316 µM
[18] = second compound 0.316 µM, first compound 1 µM
[19] = second compound 1 µM, first compound 0.0316 µM
[20] = second compound 1 µM, first compound 0.1 µM
[21] = second compound 1 µM, first compound 0.316 µM
[22] = second compound 1 µM, first compound 1 µM
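Further: spheroids exposed to agents for seven days before readout.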

- IC50 [1]: > 3000 nM
- IC50 [2]: 1950 nM
- IC50 [3]: 718 nM
- IC50 [4]: 156 nM
- IC50 [5]: 11.4 nM
- IC50 [6]: < 9.49 nM
SMILES: Cn1cnc2c(F)c(Nc3ccc(Br)cc3Cl)c(C(=O)NOCCO)cc21 + COc1c(OCCCN2CCOCC2)ccc2c3n(c(=NC(=O)c4cnc(N)nc4)nc12)CCN3
- viability, T/C (second compound 0.00316 µM, first compound 0.00949 µM): 104%
- viability, T/C (second compound 0.00316 µM, first compound 0.03 µM): 99.9%
- viability, T/C (second compound 0.00316 µM, first compound 0.0949 µM): 92.1%
- viability, T/C (second compound 0.00316 µM, first compound 0.3 µM): 86.6%
- viability, T/C (second compound 0.00316 µM, first compound 0.949 µM): 75.6%
- viability, T/C (second compound 0.00316 µM, first compound 3 µM): 57.5%
- viability, T/C (second compound 0.01 µM, first compound 0.00949 µM): 107%
- viability, T/C (second compound 0.01 µM, first compound 0.03 µM): 101%
- viability, T/C (second compound 0.01 µM, first compound 0.0949 µM): 88.6%
- viability, T/C (second compound 0.01 µM, first compound 0.3 µM): 85.6%
- viability, T/C (second compound 0.01 µM, first compound 0.949 µM): 69%
- viability, T/C (second compound 0.01 µM, first compound 3 µM): 38.7%
- viability, T/C (second compound 0.0316 µM, first compound 0.00949 µM): 102%
- viability, T/C (second compound 0.0316 µM, first compound 0.03 µM): 93%
- viability, T/C (second compound 0.0316 µM, first compound 0.0949 µM): 81%
- viability, T/C (second compound 0.0316 µM, first compound 0.3 µM): 67.2%
- viability, T/C (second compound 0.0316 µM, first compound 0.949 µM): 45.3%
- viability, T/C (second compound 0.0316 µM, first compound 3 µM): 16%
- viability, T/C (second compound 0.1 µM, first compound 0.00949 µM): 81.5%
- viability, T/C (second compound 0.1 µM, first compound 0.03 µM): 69.3%
- viability, T/C (second compound 0.1 µM, first compound 0.0949 µM): 55.4%
- viability, T/C (second compound 0.1 µM, first compound 0.3 µM): 43.1%
- viability, T/C (second compound 0.1 µM, first compound 0.949 µM): 23.9%
- viability, T/C (second compound 0.1 µM, first compound 3 µM): 3.88%
- viability, T/C (second compound 0.316 µM, first compound 0.00949 µM): 50.8%
- viability, T/C (second compound 0.316 µM, first compound 0.03 µM): 44.9%
- viability, T/C (second compound 0.316 µM, first compound 0.0949 µM): 28.9%
- viability, T/C (second compound 0.316 µM, first compound 0.3 µM): 18%
- viability, T/C (second compound 0.316 µM, first compound 0.949 µM): 4.2%
- viability, T/C (second compound 0.316 µM, first compound 3 µM): 1.79%
- viability, T/C (second compound 1 µM, first compound 0.00949 µM): 21.7%
- viability, T/C (second compound 1 µM, first compound 0.03 µM): 17.9%
- viability, T/C (second compound 1 µM, first compound 0.0949 µM): 10.1%
- viability, T/C (second compound 1 µM, first compound 0.3 µM): 3.9%
- viability, T/C (second compound 1 µM, first compound 0.949 µM): 2.04%
- viability, T/C (second compound 1 µM, first compound 3 µM): 1.34%

- IC50 [3]: > 1000 nM
- IC50 [4]: > 1000 nM
- IC50 [5]: > 1000 nM
- IC50 [6]: > 1000 nM
- IC50 (curve of first compound, second compound 3.16 µM): > 1000 nM
- IC50 (curve of first compound, second compound 10 µM): > 1000 nM
SMILES: CCN1CCN(Cc2ccc(Nc3ncc(F)c(-c4cc(F)c5nc(C)n(C(C)C)c5c4)n3)nc2)CC1 + CC(Nc1ncnc2nc[nH]c12)c1cc2cccc(Cl)c2c(=O)n1-c1ccccc1
- viability, T/C (second compound 0.0316 µM, first compound 0.00316 µM): 106%
- viability, T/C (second compound 0.0316 µM, first compound 0.01 µM): 103%
- viability, T/C [7]: 103%
- viability, T/C [8]: 98.8%
- viability, T/C [9]: 109%
- viability, T/C [10]: 105%
- viability, T/C (second compound 0.1 µM, first compound 0.00316 µM): 105%
- viability, T/C (second compound 0.1 µM, first compound 0.01 µM): 105%
- viability, T/C [11]: 103%
- viability, T/C [12]: 97.6%
- viability, T/C [13]: 109%
- viability, T/C [14]: 100%
- viability, T/C (second compound 0.316 µM, first compound 0.00316 µM): 101%
- viability, T/C (second compound 0.316 µM, first compound 0.01 µM): 112%
- viability, T/C [15]: 102%
- viability, T/C [16]: 110%
- viability, T/C [17]: 106%
- viability, T/C [18]: 91.9%
- viability, T/C (second compound 1 µM, first compound 0.00316 µM): 105%
- viability, T/C (second compound 1 µM, first compound 0.01 µM): 101%
- viability, T/C [19]: 102%
- viability, T/C [20]: 104%
- viability, T/C [21]: 108%
- viability, T/C [22]: 93%
- viability, T/C (second compound 3.16 µM, first compound 0.00316 µM): 109%
- viability, T/C (second compound 3.16 µM, first compound 0.01 µM): 107%
- viability, T/C (second compound 3.16 µM, first compound 0.0316 µM): 101%
- viability, T/C (second compound 3.16 µM, first compound 0.1 µM): 104%
- viability, T/C (second compound 3.16 µM, first compound 0.316 µM): 100%
- viability, T/C (second compound 3.16 µM, first compound 1 µM): 81.8%
- viability, T/C (second compound 10 µM, first compound 0.00316 µM): 105%
- viability, T/C (second compound 10 µM, first compound 0.01 µM): 102%
- viability, T/C (second compound 10 µM, first compound 0.0316 µM): 106%
- viability, T/C (second compound 10 µM, first compound 0.1 µM): 96.5%
- viability, T/C (second compound 10 µM, first compound 0.316 µM): 89.5%
- viability, T/C (second compound 10 µM, first compound 1 µM): 69%

- IC50 (curve of compound): > 10000 nM and 9470 nM
SMILES: Cn1nccc1Nc1nccc(-c2ccn(C(CO)c3ccc(Cl)c(F)c3)c(=O)c2)n1 (stereo not drawn)
- viability, T/C (compound 0.0316 µM): 106% [middle of 4 runs]
- viability, T/C (compound 0.1 µM): 92.5% [middle of 4 runs]
- viability, T/C (compound 0.316 µM): 97% [middle of 4 runs]
- viability, T/C (compound 1 µM): 95.2% [middle of 4 runs]
- viability, T/C (compound 3.16 µM): 78.3% [middle of 4 runs]
- viability, T/C (compound 10 µM): 61.8% [middle of 4 runs]

- IC50 [1]: > 10000 nM
- IC50 [2]: > 10000 nM
- IC50 [3]: > 10000 nM
- IC50 [4]: 5650 nM
- IC50 [5]: 101 nM
- IC50 [6]: < 31.6 nM
SMILES: C#Cc1c(F)ccc2cc(O)cc(-c3ncc4c(N5CC6CCC(C5)N6)nc(OCC56CCCN5CC(F)C6)nc4c3F)c12 (stereo not drawn) + COc1c(OCCCN2CCOCC2)ccc2c3n(c(=NC(=O)c4cnc(N)nc4)nc12)CCN3
- viability, T/C (second compound 0.00316 µM, first compound 0.0316 µM): 105%
- viability, T/C (second compound 0.00316 µM, first compound 0.1 µM): 108%
- viability, T/C (second compound 0.00316 µM, first compound 0.316 µM): 98.1%
- viability, T/C (second compound 0.00316 µM, first compound 1 µM): 91.9%
- viability, T/C (second compound 0.00316 µM, first compound 3.16 µM): 101%
- viability, T/C (second compound 0.00316 µM, first compound 10 µM): 84.9%
- viability, T/C (second compound 0.01 µM, first compound 0.0316 µM): 107%
- viability, T/C (second compound 0.01 µM, first compound 0.1 µM): 106%
- viability, T/C (second compound 0.01 µM, first compound 0.316 µM): 99.1%
- viability, T/C (second compound 0.01 µM, first compound 1 µM): 91%
- viability, T/C (second compound 0.01 µM, first compound 3.16 µM): 88.8%
- viability, T/C (second compound 0.01 µM, first compound 10 µM): 73%
- viability, T/C [7]: 91.5%
- viability, T/C [8]: 96.2%
- viability, T/C [9]: 85.9%
- viability, T/C [10]: 72.5%
- viability, T/C (second compound 0.0316 µM, first compound 3.16 µM): 67.2%
- viability, T/C (second compound 0.0316 µM, first compound 10 µM): 51.5%
- viability, T/C [11]: 80.6%
- viability, T/C [12]: 69.9%
- viability, T/C [13]: 68.5%
- viability, T/C [14]: 61.8%
- viability, T/C (second compound 0.1 µM, first compound 3.16 µM): 54.6%
- viability, T/C (second compound 0.1 µM, first compound 10 µM): 45.7%
- viability, T/C [15]: 54.5%
- viability, T/C [16]: 51.9%
- viability, T/C [17]: 42.3%
- viability, T/C [18]: 37.3%
- viability, T/C (second compound 0.316 µM, first compound 3.16 µM): 33.6%
- viability, T/C (second compound 0.316 µM, first compound 10 µM): 23%
- viability, T/C [19]: 18.4%
- viability, T/C [20]: 17.6%
- viability, T/C [21]: 14.9%
- viability, T/C [22]: 12.1%
- viability, T/C (second compound 1 µM, first compound 3.16 µM): 9.63%
- viability, T/C (second compound 1 µM, first compound 10 µM): 8.02%
